One may read the EC50 as the concentration needed to bring the measured effect to its halfway point.

In test [1] the target is T1, ABCG2 (BCRP; MXR; ABCP) (Homo sapiens, UniProt Q9UNQ0).
T1 sequence (Q9UNQ0 1-655): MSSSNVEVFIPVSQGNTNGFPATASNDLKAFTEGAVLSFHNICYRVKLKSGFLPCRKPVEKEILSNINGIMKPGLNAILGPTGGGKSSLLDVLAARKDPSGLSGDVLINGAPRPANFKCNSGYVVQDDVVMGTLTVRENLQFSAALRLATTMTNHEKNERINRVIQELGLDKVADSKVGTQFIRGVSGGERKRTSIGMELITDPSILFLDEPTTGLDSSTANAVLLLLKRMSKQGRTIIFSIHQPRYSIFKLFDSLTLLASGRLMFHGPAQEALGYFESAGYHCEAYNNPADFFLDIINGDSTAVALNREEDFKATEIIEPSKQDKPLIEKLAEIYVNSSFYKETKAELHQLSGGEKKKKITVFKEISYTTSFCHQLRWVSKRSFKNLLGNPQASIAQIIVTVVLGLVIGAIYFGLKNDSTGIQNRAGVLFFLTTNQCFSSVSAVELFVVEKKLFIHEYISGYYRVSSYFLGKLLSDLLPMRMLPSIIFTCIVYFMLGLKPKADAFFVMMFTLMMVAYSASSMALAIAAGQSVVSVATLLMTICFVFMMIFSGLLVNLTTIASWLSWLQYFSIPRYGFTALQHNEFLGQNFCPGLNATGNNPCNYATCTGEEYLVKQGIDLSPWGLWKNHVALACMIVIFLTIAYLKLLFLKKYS
As to the kind of experiment: vanadate-sensitive ATPase stimulation in High-Five insect cell membrane vesicles; also PhA efflux inhibition in R482-HEK293 cells (IC50 […]). Format: biochemical.

In test [2] the target is ABCB1 (P-glycoprotein; MDR1) (Homo sapiens, UniProt P08183). The test is described as follows: vanadate-sensitive ATPase stimulation in High-Five insect cell membrane vesicles; also calcein-AM efflux inhibition in MDR19-HEK293 cells (IC50 […]). The format is biochemical.
Sequence of ABCB1 (P-glycoprotein; MDR1) (P08183 whole entry): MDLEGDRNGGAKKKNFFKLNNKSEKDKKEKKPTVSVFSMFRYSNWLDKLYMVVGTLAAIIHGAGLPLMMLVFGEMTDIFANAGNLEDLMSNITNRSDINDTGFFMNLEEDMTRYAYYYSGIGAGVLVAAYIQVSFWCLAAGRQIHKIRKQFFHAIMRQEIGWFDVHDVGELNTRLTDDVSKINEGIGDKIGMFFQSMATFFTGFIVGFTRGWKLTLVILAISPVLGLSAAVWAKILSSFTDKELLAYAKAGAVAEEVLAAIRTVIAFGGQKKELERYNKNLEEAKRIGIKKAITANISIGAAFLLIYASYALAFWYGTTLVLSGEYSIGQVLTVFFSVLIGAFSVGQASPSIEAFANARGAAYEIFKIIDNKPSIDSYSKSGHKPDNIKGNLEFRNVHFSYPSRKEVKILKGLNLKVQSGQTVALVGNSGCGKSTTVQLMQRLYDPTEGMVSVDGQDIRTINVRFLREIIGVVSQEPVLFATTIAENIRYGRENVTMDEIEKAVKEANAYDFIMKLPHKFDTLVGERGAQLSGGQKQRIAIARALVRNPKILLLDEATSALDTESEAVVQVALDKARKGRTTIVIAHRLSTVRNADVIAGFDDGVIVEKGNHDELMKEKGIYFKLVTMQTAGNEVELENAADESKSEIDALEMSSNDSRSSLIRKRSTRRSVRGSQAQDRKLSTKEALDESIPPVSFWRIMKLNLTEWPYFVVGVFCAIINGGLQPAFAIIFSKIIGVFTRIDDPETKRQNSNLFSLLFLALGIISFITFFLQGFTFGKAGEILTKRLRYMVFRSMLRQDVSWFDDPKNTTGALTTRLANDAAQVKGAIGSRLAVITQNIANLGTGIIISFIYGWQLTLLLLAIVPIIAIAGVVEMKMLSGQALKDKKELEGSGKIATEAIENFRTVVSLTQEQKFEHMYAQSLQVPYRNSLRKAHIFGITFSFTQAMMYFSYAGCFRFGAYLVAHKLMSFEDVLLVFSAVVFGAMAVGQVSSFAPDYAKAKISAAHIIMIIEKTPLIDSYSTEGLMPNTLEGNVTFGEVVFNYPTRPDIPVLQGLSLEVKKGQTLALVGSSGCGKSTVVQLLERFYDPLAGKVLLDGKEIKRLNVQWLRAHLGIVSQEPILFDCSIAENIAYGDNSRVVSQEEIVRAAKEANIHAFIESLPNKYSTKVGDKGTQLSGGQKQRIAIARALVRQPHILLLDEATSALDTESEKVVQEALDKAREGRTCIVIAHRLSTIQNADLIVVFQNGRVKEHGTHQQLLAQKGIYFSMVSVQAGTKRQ

`C=CC(=O)Nc1cc(Nc2nccc(-c3cn(C)c4ccccc34)n2)c(OCC(F)(F)F)nc1N(C)CCN(C)C` [furmonertinib]: the EC50 in test [1] is around 3 nM; in test [2], around 600 nM.

Values taken from article PMC10531071, “Furmonertinib, a Third-Generation EGFR Tyrosine Kinase Inhibitor, Overcomes Multidrug Resistance through Inhibiting ABCB1 and ABCG2 in Cancer Cells” (International Journal of Molecular Sciences, 2023).
